#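 Cultured in 96-well plates, cells were exposed to test compound for 48 hours across five concentrations. GI50 = concentration required for 50% inhibition of growth.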 Calls of active or inactive are those of the source. No stated cut-off is given here; in the data, active = GI50 up to about 1.1 µM and inactive = higher.
# Legend:
# Test in all cases: NCI anticancer screen, dose series, 48 h
# [1] = system: HL-60
# [2] = system: SK-MEL-2
# [3] = system: SK-MEL-5
# [4] = system: SN12C
# [5] = system: LOX IMVI
# [6] = system: NCI-H23
# [7] = system: COLO 205
# [8] = system: HCC 2998
# [9] = system: UO-31
# [10] = system: OVCAR-5
# [11] = system: OVCAR-3
# [12] = system: Hs-578T
# [13] = system: EKVX
# [14] = system: HOP-92
# [15] = system: Malme-3M
# [16] = system: A498
# [17] = system: UACC-257
# [18] = system: T47D
# [19] = system: OVCAR-8
# [20] = system: PC-3
# [21] = system: SK-MEL-28
# [22] = system: RPMI-8226
# [23] = system: SR
# [24] = system: MDA-N
# [25] = system: SK-OV-3
# [26] = system: ACHN
# [27] = system: TK-10
# [28] = system: U-251
# [29] = system: SF-295
# [30] = system: NCI-H460
# [31] = system: UACC-62
# [32] = system: HCT-116
# [33] = system: SF-268
# [34] = system: RXF 393
# [35] = system: HOP-62
# [36] = system: SNB-19
# [37] = system: MDA-MB-231
# [38] = system: 786-0
# [39] = system: BT-549
# [40] = system: IGROV-1
# [41] = system: CCRF-CEM
# [42] = system: MCF7
# [43] = system: SNB-75
# [44] = system: CAKI-1
# [45] = system: MDA-MB-435
# [46] = system: MOLT-4
# [47] = system: HT-29
# [48] = system: SF-539
# [49] = system: HCT-15
# [50] = system: NCI-H226
# [51] = system: NCI-H522
# [52] = system: A549
# [53] = system: DU-145
# [54] = system: K562
# [55] = system: M14
# [56] = system: KM12
# [57] = system: SW-620
# [58] = system: OVCAR-4
# [59] = system: NCI/ADR-RES
smiles,measurement,setting,value
COc1cccc(C2c3cc4c(cc3OC(NNc3ccccc3)C2C)OCO4)c1O (configuration not stated),GI50,[1],4.48 µM (inactive)
same,GI50,[2],8.55 µM (inactive)
same,GI50,[3],6.21 µM (inactive)
same,GI50,[4],11.2 µM (inactive)
same,GI50,[5],12.7 µM (inactive)
same,GI50,[6],10.1 µM (inactive)
same,GI50,[7],8.75 µM (inactive)
same,GI50,[8],2.08 µM (inactive)
same,GI50,[9],3.32 µM (inactive)
same,GI50,[10],9.38 µM (inactive)
same,GI50,[11],2.71 µM (inactive)
same,GI50,[12],11.9 µM (inactive)
same,GI50,[13],4.88 µM (inactive)
same,GI50,[14],12.6 µM (inactive)
same,GI50,[15],4.66 µM (inactive)
same,GI50,[16],14 µM (inactive)
same,GI50,[17],4.57 µM (inactive)
same,GI50,[18],6.15 µM (inactive)
same,GI50,[19],2.47 µM (inactive)
same,GI50,[20],4.76 µM (inactive)
same,GI50,[21],8.77 µM (inactive)
same,GI50,[22],4.18 µM (inactive)
same,GI50,[23],1.87 µM (inactive)
same,GI50,[24],2.14 µM (inactive)
same,GI50,[25],21.9 µM (inactive)
same,GI50,[26],1.5 µM (inactive)
same,GI50,[27],3.62 µM (inactive)
same,GI50,[28],5.61 µM (inactive)
same,GI50,[29],2.06 µM (inactive)
same,GI50,[30],2.81 µM (inactive)
same,GI50,[31],2.43 µM (inactive)
same,GI50,[32],4.4 µM (inactive)
same,GI50,[33],12.2 µM (inactive)
same,GI50,[34],12.9 µM (inactive)
same,GI50,[35],2.51 µM (inactive)
same,GI50,[36],12.8 µM (inactive)
same,GI50,[37],12.6 µM (inactive)
same,GI50,[38],2.88 µM (inactive)
same,GI50,[39],7.18 µM (inactive)
same,GI50,[40],5.47 µM (inactive)
same,GI50,[41],4.68 µM (inactive)
same,GI50,[42],4.67 µM (inactive)
same,GI50,[43],6.61 µM (inactive)
same,GI50,[44],3.1 µM (inactive)
same,GI50,[45],2.59 µM (inactive)
same,GI50,[46],4.17 µM (inactive)
same,GI50,[47],10.9 µM (inactive)
same,GI50,[48],3.18 µM (inactive)
same,GI50,[49],1.62 µM
same,GI50,[50],14.5 µM (inactive)
same,GI50,[51],2.36 µM (inactive)
same,GI50,[52],3.65 µM (inactive)
same,GI50,[53],5.13 µM (inactive)
same,GI50,[54],2.24 µM (inactive)
same,GI50,[55],2.92 µM (inactive)
same,GI50,[56],2.38 µM (inactive)
same,GI50,[57],11 µM (inactive)
CC(=O)OCCCCn1cnc2nc(Nc3ccccc3)nc(Cl)c21,GI50,[1],> 100 µM (inactive)
same,GI50,[58],65.3 µM (inactive)
same,GI50,[2],> 100 µM (inactive)
same,GI50,[3],42.2 µM (inactive)
same,GI50,[4],90.6 µM (inactive)
same,GI50,[5],67.5 µM (inactive)
same,GI50,[7],> 100 µM (inactive)
same,GI50,[8],85.3 µM (inactive)
same,GI50,[9],40.6 µM (inactive)
same,GI50,[11],55.1 µM (inactive)
same,GI50,[12],36.2 µM (inactive)
same,GI50,[13],> 100 µM (inactive)
same,GI50,[14],51.4 µM (inactive)
same,GI50,[15],83.4 µM (inactive)
same,GI50,[16],73.1 µM (inactive)
same,GI50,[17],58.7 µM (inactive)
same,GI50,[18],56.9 µM (inactive)
same,GI50,[19],> 100 µM (inactive)
same,GI50,[20],42.5 µM (inactive)
same,GI50,[21],> 100 µM (inactive)
same,GI50,[22],> 100 µM (inactive)
same,GI50,[23],> 100 µM (inactive)
same,GI50,[24],31.2 µM (inactive)
same,GI50,[25],97.3 µM (inactive)
same,GI50,[26],60.7 µM (inactive)
same,GI50,[59],42.4 µM (inactive)
same,GI50,[27],> 100 µM (inactive)
same,GI50,[28],> 100 µM (inactive)
same,GI50,[29],57.1 µM (inactive)
same,GI50,[30],> 100 µM (inactive)
same,GI50,[31],33.7 µM (inactive)
same,GI50,[32],72.4 µM (inactive)
same,GI50,[33],> 100 µM (inactive)
same,GI50,[34],68.7 µM (inactive)
same,GI50,[35],62.7 µM (inactive)
same,GI50,[36],> 100 µM (inactive)
same,GI50,[37],35.2 µM (inactive)
same,GI50,[38],> 100 µM (inactive)
same,GI50,[39],26.9 µM (inactive)
same,GI50,[40],> 100 µM (inactive)
same,GI50,[41],78.2 µM (inactive)
same,GI50,[42],> 100 µM (inactive)
same,GI50,[43],50.7 µM (inactive)
same,GI50,[44],14 µM (inactive)
same,GI50,[45],34.4 µM (inactive)
same,GI50,[46],66.5 µM (inactive)
same,GI50,[47],91.6 µM (inactive)
same,GI50,[48],> 100 µM (inactive)
same,GI50,[49],73.1 µM
same,GI50,[50],57 µM (inactive)
same,GI50,[52],61.7 µM (inactive)
same,GI50,[54],99.1 µM (inactive)
same,GI50,[55],59.6 µM (inactive)
same,GI50,[56],91.4 µM (inactive)
same,GI50,[57],> 100 µM (inactive)

# From ChEMBL document CHEMBL1201862, “PubChem BioAssay data set” (2004)
